{"source": "patent US12285440B2", "about": "“APOE4 impairs myelination via altered cholesterol biosynthesis and transport in oligodendroglia” (Massachusetts Institute of Technology, priority 2021, dated 2025)", "type_in_all_cases": "cell-based, human", "key": {"APOE3 iMGLs [1]": {"test_system": "APOE3 iMGLs", "test": "Calcium imaging upon ATP uncaging in OA-treated APOE3 iMGLs", "conditions": "20 μM, 16 hours, vs untreated APOE3 iMGLs"}, "APOE3 iMGLs [2]": {"test_system": "APOE3 iMGLs", "test": "qPCR of OA-treated iMGLs", "conditions": "20 μM, 16 hours"}, "APOE3 iMGLs [3]": {"test_system": "APOE3 iMGLs", "test": "Lipid droplet induction in APOE3 iMGLs, BODIPY/IBA1 staining", "conditions": "20 μM, 16 hours"}, "APOE4 iMGLs [4]": {"test_system": "APOE4 iMGLs", "test": "Cholesterol in media of APOE4 iMGLs via ELISA", "conditions": "16 hours treatment, drug washed off, media conditioned 24 hours; vs DMSO-treated controls", "description": "Having induced lipid formation in APOE3 iMGLs, we next attempted to deplete APOE4 iMGLs of lipid droplets to test whether this would alleviate APOE4 phenotypes. We turned to the ACSL1 inhibitor Triacsin C (TrC). […] Since TrC has also been reported to inhibit cholesterol biosynthesis and increase microglial phagocytosis, we decided to test if the extracellular accumulation of cholesterol in APOE4 iMGLs could be reduced by TrC treatment. After 16 hours, DMSO-treated controls or TrC-treated APOE4 iMGLs were washed off the drug treatment and allowed to condition the media for an additional 24 hours. […] We reasoned that a decrease in extracellular cholesterol accumulation in APOE4 iMGLs cultures treated with TrC was likely to also relieve the suppression of neuronal activity under APOE4 iMGL conditioned media. NGN2-induced neurons from APOE3 or APOE4 iPS lines were seeded onto MEAs and allowed to mature for 3 weeks before being recorded 24 hours after exposure to conditioned media from APOE3 iMGLs, APOE4 iMGLs, or APOE4 iMGL treated with TrC. […]\n[…] Measurements were made using an EnSpire plate reader (Perkin Elmer). APOE levels were similarly processed and quantified from iMGL conditioned media using Apolipoprotein E Human ELISA kit (Invitrogen; #EHAPOE)."}, "NGN2-induced neurons": {"test_system": "NGN2-induced neurons", "test": "MEA recording of NGN2-induced neurons exposed to iMGL conditioned media", "conditions": "24 hours after exposure to conditioned media from APOE4 iMGL pre-treated with TrC", "description": "Having induced lipid formation in APOE3 iMGLs, we next attempted to deplete APOE4 iMGLs of lipid droplets to test whether this would alleviate APOE4 phenotypes. We turned to the ACSL1 inhibitor Triacsin C (TrC). […] Since TrC has also been reported to inhibit cholesterol biosynthesis and increase microglial phagocytosis, we decided to test if the extracellular accumulation of cholesterol in APOE4 iMGLs could be reduced by TrC treatment. After 16 hours, DMSO-treated controls or TrC-treated APOE4 iMGLs were washed off the drug treatment and allowed to condition the media for an additional 24 hours. […] NGN2-induced neurons from APOE3 or APOE4 iPS lines were seeded onto MEAs and allowed to mature for 3 weeks before being recorded 24 hours after exposure to conditioned media from APOE3 iMGLs, APOE4 iMGLs, or APOE4 iMGL treated with TrC. […]\nDissociated spheroids or NGN2-induced neurons were plated as a 10 μl droplet in Poly-D-Lysine (Sigma-Aldrich) coated wells of a CytoView MEA 48-well plate (Axion BioSystems; M768-tMEA-48B). […] Spontaneous neural activity was recorded for 30 minutes at a sampling rate of 12.5 kHz and an adaptive threshold set at 5.5 times the standard deviation of baseline noise was used for spike detection. Bursts were detected at each electrode using an inter-spike interval (ISI) threshold set to at least 5 spikes with a maximum ISI of 100 ms. […]"}, "APOE4 iMGLs [5]": {"test_system": "APOE4 iMGLs", "test": "Purinergic signaling in TrC-treated APOE4 iMGLs", "conditions": "1 μM, 16 hours"}, "APOE4 iMGLs [6]": {"test_system": "APOE4 iMGLs", "conditions": "1 μM, 16 hours, vs DMSO-treated control cells"}}, "data": [{"smiles": "CCCCCCCC/C=C\\CCCCCCCC(=O)O", "note": "[OA, oleic acid]", "values": [{"measurement": "calcium transients evoked by ATP uncaging", "setting": "APOE3 iMGLs [1]", "value": "sufficient to blunt calcium transients evoked by ATP uncaging relative to untreated APOE3 iMGLs"}, {"measurement": "CD74 expression by qPCR", "setting": "APOE3 iMGLs [2]", "value": "upregulation of this gene"}, {"measurement": "expression of ACSL1", "setting": "APOE3 iMGLs [2]", "value": "significantly induced the expression of ACSL1"}, {"measurement": "cell size of iMGLs", "setting": "APOE3 iMGLs [3]", "value": "decrease in the cell size of iMGLs"}, {"measurement": "intracellular BODIPY-positive lipid droplets", "setting": "APOE3 iMGLs [3]; IBA1-positive cells", "value": "accumulated intracellular BODIPY-positive lipid droplets"}]}, {"smiles": "CCC/C=C/C/C=C/C=C/C=N/NN=O", "note": "[TrC, Triacsin C]", "values": [{"measurement": "levels of accumulated cholesterol in the media", "setting": "APOE4 iMGLs [4]", "value": "significant decrease in the levels of accumulated cholesterol in the media"}, {"measurement": "neuronal bursts / neural activity on MEA", "setting": "NGN2-induced neurons", "value": "increased neural activity to the level of neurons treated with APOE3 iMGL media"}, {"measurement": "purinergic signaling", "setting": "APOE4 iMGLs [5]", "value": "purinergic signaling was restored after lipid droplet depletion"}, {"measurement": "BODIPY-positive lipid droplets", "setting": "APOE4 iMGLs [6]", "value": "dramatically reduce BODIPY-positive lipid droplets relative to DMSO-treated control cells"}]}]}
